Species on record: Rattus norvegicus
Assay: Open TG-GATES - Regimen: Single
Type: toxicity, organism-based, Sprague-Dawley
Design: regimen Single, gender Male, age 6 weeks
Conditions: in vivo, po, 0 mg/kg, route gavage, dose level Control; for APTT / Bas / Eos / Fbg / Hb / Ht / Lym / MCH / MCHC / MCV / Mono / Neu / PT / Plat / RBC / Ret / WBC: tissue Blood; for KIDNEY_L / KIDNEY_R / KIDNEY_TOTAL: tissue Kidney; for LIVER: tissue Liver; for A/G / ALP / ALT / AST / BUN / CRE / Ca / Cl / DBIL / GLC / IP / K / LDH / Na / PL / RALB / TBIL / TC / TG / TP / gamma-GTP: tissue Plasma

COc1ccc(Cc2nccc3cc(OC)c(OC)cc23)cc1OC [PAPAVERINE]
TERMINAL_BW (3 h): 223.5 g | APTT (3 h): 21.8 s | Bas (3 h): 0% | Eos (3 h): 0.8% | Fbg (3 h): 332.6 mg/dL | Hb (3 h): 13.5 g/dL | Ht (3 h): 40.3% | Lym (3 h): 80.6% | MCH (3 h): 21.3 pg | MCHC (3 h): 33.5% | MCV (3 h): 63.4 fL | Mono (3 h): 2.2% | Neu (3 h): 15% | PT (3 h): 15.8 s | Plat (3 h): 108.7 x10_4/uL | RBC (3 h): 637.4 x10_4/ul | Ret (3 h): 7.9% | WBC (3 h): 110.9 x10_2/uL | KIDNEY_L (3 h): 1 g | KIDNEY_R (3 h): 1 g | KIDNEY_TOTAL (3 h): 2 g | LIVER (3 h): 10.2 g | A/G (3 h): 1.2 | ALP (3 h): 1651.2 IU/L | ALT (3 h): 42.8 IU/L | AST (3 h): 73 IU/L | BUN (3 h): 14 mg/dL | CRE (3 h): 0.1 mg/dL | Ca (3 h): 11 mg/dL | Cl (3 h): 108.6 meq/L | DBIL (3 h): 0 mg/dL | GLC (3 h): 193.6 mg/dL | IP (3 h): 7.8 mg/dL | K (3 h): 4 meq/L | LDH (3 h): 147.2 IU/L | Na (3 h): 141.6 meq/L | PL (3 h): 140.2 mg/dL | RALB (3 h): 3 g/dL | TBIL (3 h): 0.01 mg/dL | TC (3 h): 82.6 mg/dL | TG (3 h): 55 mg/dL | TP (3 h): 5.5 g/dL | gamma-GTP (3 h): 2 IU/L | TERMINAL_BW (6 h): 214 g | APTT (6 h): 23 s | Bas (6 h): 0% | Eos (6 h): 0.6% | Fbg (6 h): 325.8 mg/dL | Hb (6 h): 13.8 g/dL | Ht (6 h): 41.4% | Lym (6 h): 82.8% | MCH (6 h): 20.8 pg | MCHC (6 h): 33.3% | MCV (6 h): 62.5 fL | Mono (6 h): 2.2% | Neu (6 h): 13.4% | PT (6 h): 15.9 s | Plat (6 h): 116.4 x10_4/uL | RBC (6 h): 664 x10_4/ul | Ret (6 h): 7.4% | WBC (6 h): 118.9 x10_2/uL | KIDNEY_L (6 h): 0.9 g | KIDNEY_R (6 h): 0.9 g | KIDNEY_TOTAL (6 h): 1.8 g | LIVER (6 h): 9.4 g | A/G (6 h): 1.2 | ALP (6 h): 1310.2 IU/L | ALT (6 h): 38.4 IU/L | AST (6 h): 74.4 IU/L | BUN (6 h): 10 mg/dL | CRE (6 h): 0.1 mg/dL | Ca (6 h): 11 mg/dL | Cl (6 h): 106.2 meq/L | DBIL (6 h): 0.002 mg/dL | GLC (6 h): 180.6 mg/dL | IP (6 h): 8.8 mg/dL | K (6 h): 4.3 meq/L | LDH (6 h): 159.6 IU/L | Na (6 h): 140.8 meq/L | PL (6 h): 131.6 mg/dL | RALB (6 h): 2.9 g/dL | TBIL (6 h): 0.01 mg/dL | TC (6 h): 79.2 mg/dL | TG (6 h): 47.6 mg/dL | TP (6 h): 5.3 g/dL | gamma-GTP (6 h): 2 IU/L | TERMINAL_BW (9 h): 213.9 g | APTT (9 h): 22.9 s | Bas (9 h): 0% | Eos (9 h): 1% | Fbg (9 h): 312.8 mg/dL | Hb (9 h): 13.1 g/dL | Ht (9 h): 39.9% | Lym (9 h): 81.2% | MCH (9 h): 20.3 pg | MCHC (9 h): 33% | MCV (9 h): 61.6 fL | Mono (9 h): 2.4% | Neu (9 h): 14.4% | PT (9 h): 15.6 s | Plat (9 h): 107.7 x10_4/uL | RBC (9 h): 647.6 x10_4/ul | Ret (9 h): 7.9% | WBC (9 h): 110.4 x10_2/uL | KIDNEY_L (9 h): 0.9 g | KIDNEY_R (9 h): 0.9 g | KIDNEY_TOTAL (9 h): 1.9 g | LIVER (9 h): 9.1 g | A/G (9 h): 1.3 | ALP (9 h): 1489.8 IU/L | ALT (9 h): 41.2 IU/L | AST (9 h): 69.4 IU/L | BUN (9 h): 11.2 mg/dL | CRE (9 h): 0.1 mg/dL | Ca (9 h): 10.9 mg/dL | Cl (9 h): 105.8 meq/L | DBIL (9 h): 0 mg/dL | GLC (9 h): 190.8 mg/dL | IP (9 h): 9.1 mg/dL | K (9 h): 4.2 meq/L | LDH (9 h): 169 IU/L | Na (9 h): 140.6 meq/L | PL (9 h): 134.6 mg/dL | RALB (9 h): 3 g/dL | TBIL (9 h): 0.016 mg/dL | TC (9 h): 78.4 mg/dL | TG (9 h): 75 mg/dL | TP (9 h): 5.3 g/dL | gamma-GTP (9 h): 1.6 IU/L | TERMINAL_BW (24 h): 237.4 g | APTT (24 h): 21.6 s | Bas (24 h): 0% | Eos (24 h): 1% | Fbg (24 h): 315.8 mg/dL | Hb (24 h): 13.5 g/dL | Ht (24 h): 40% | Lym (24 h): 81% | MCH (24 h): 21 pg | MCHC (24 h): 33.6% | MCV (24 h): 62.6 fL | Mono (24 h): 2.8% | Neu (24 h): 14.6% | PT (24 h): 16 s | Plat (24 h): 106.2 x10_4/uL | RBC (24 h): 639.4 x10_4/ul | Ret (24 h): 7.5% | WBC (24 h): 110.4 x10_2/uL | KIDNEY_L (24 h): 1 g | KIDNEY_R (24 h): 1 g | KIDNEY_TOTAL (24 h): 2.1 g | LIVER (24 h): 11.3 g | A/G (24 h): 1.3 | ALP (24 h): 1563.2 IU/L | ALT (24 h): 46.2 IU/L | AST (24 h): 72.2 IU/L | BUN (24 h): 15.4 mg/dL | CRE (24 h): 0.1 mg/dL | Ca (24 h): 10.8 mg/dL | Cl (24 h): 106.2 meq/L | DBIL (24 h): 0 mg/dL | GLC (24 h): 198.2 mg/dL | IP (24 h): 7.9 mg/dL | K (24 h): 4.4 meq/L | LDH (24 h): 179.4 IU/L | Na (24 h): 143 meq/L | PL (24 h): 142.6 mg/dL | RALB (24 h): 3 g/dL | TBIL (24 h): 0.01 mg/dL | TC (24 h): 77 mg/dL | TG (24 h): 87.8 mg/dL | TP (24 h): 5.3 g/dL | gamma-GTP (24 h): 1.8 IU/L
